From ChEMBL document CHEMBL1201862, “PubChem BioAssay data set” (2004)
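A five-concentration, 48-hour dose response in 96-well plates underlies each endpoint, interpolated linearly between surrounding concentrations. The concentration for 50% growth inhibition is given as GI50.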 Activity calls are given as the source filed them. No stated cut-off is given here; in the data, active = GI50 up to about 1.1 µM and inactive = higher.

Tests used:
Experiment in all cases: inhibition of tumour cell growth, NCI panel, 48 h
[1] = system: A498
[2] = system: CCRF-CEM
[3] = system: EKVX
[4] = system: HCT-15
[5] = system: HOP-62
[6] = system: HOP-92
[7] = system: HT-29
[8] = system: IGROV-1
[9] = system: LOX IMVI
[10] = system: MCF7
[11] = system: NCI-H226
[12] = system: NCI-H460
[13] = system: OVCAR-3
[14] = system: OVCAR-8
[15] = system: RXF 393
[16] = system: SF-268
[17] = system: SF-295
[18] = system: SNB-75
[19] = system: TK-10
[20] = system: DU-145

SMILES | GI50 [1] | GI50 [2] | GI50 [3] | GI50 [4] [µM] | GI50 [5] | GI50 [6] | GI50 [7] | GI50 [8] | GI50 [9] | GI50 [10] | GI50 [11] | GI50 [12] | GI50 [13] | GI50 [14] | GI50 [15] | GI50 [16] | GI50 [17] | GI50 [18] | GI50 [19] | GI50 [20]
CC1(CO)C(O)CCC2(C)C1C(O)CC1CC3CC12CCC3(O)CO (centres undefined) | > 225 µM (inactive) | 138 µM (inactive) | > 205 µM (inactive) | > 225 | > 225 µM (inactive) | > 225 µM (inactive) | > 225 µM (inactive) | > 225 µM (inactive) | > 225 µM (inactive) | > 217 µM (inactive) | 116 µM (inactive) | 77.1 µM (inactive) | > 225 µM (inactive) | > 213 µM (inactive) | > 225 µM (inactive) | > 191 µM (inactive) | 91.2 µM (inactive) | > 189 µM (inactive) |  | 
CC1CCCc2c(CC3CC(=O)NC(=O)C3)n[nH]c21 (centres undefined) | > 100 µM (inactive) | > 100 µM (inactive) | > 100 µM (inactive) | > 100 | > 100 µM (inactive) | > 100 µM (inactive) | > 100 µM (inactive) | > 100 µM (inactive) | > 100 µM (inactive) |  | > 100 µM (inactive) | > 100 µM (inactive) | > 100 µM (inactive) | > 100 µM (inactive) | > 100 µM (inactive) | > 100 µM (inactive) | > 100 µM (inactive) | > 100 µM (inactive) | > 100 µM (inactive) | 
CC1=CC2=C(C=O)C(=O)[C@](C)(O)[C@@H](O)C2=CO1 | 24.3 µM (inactive) | 21.5 µM (inactive) | 46.9 µM (inactive) | 28.8 | 24.3 µM (inactive) | > 65.5 µM (inactive) | 37.7 µM (inactive) | 32.1 µM (inactive) | 27.7 µM (inactive) | 39.4 µM (inactive) | 25.8 µM (inactive) | 29.9 µM (inactive) | 1.56 µM (inactive) | > 64.7 µM (inactive) | 16.7 µM (inactive) | 24.9 µM (inactive) | 35.7 µM (inactive) | 13.8 µM (inactive) |  | 
N#Cc1c(N2CCCC2)nsc1Nc1ccccc1 | > 100 µM (inactive) | > 100 µM (inactive) | > 100 µM (inactive) | > 100 |  | > 100 µM (inactive) | > 100 µM (inactive) | > 100 µM (inactive) | > 100 µM (inactive) |  | > 100 µM (inactive) | > 100 µM (inactive) |  | > 100 µM (inactive) | > 100 µM (inactive) | > 100 µM (inactive) | > 100 µM (inactive) | > 100 µM (inactive) | > 100 µM (inactive) | > 100 µM (inactive)
Cc1ccccc1NC(=O)c1ccc([N+](=O)[O-])cc1 | > 100 µM (inactive) | > 100 µM (inactive) | > 100 µM (inactive) | 66.2 | > 100 µM (inactive) | > 100 µM (inactive) | 51.1 µM (inactive) | > 100 µM (inactive) | > 100 µM (inactive) |  | > 100 µM (inactive) | > 100 µM (inactive) | 53.5 µM (inactive) | > 100 µM (inactive) | 15.8 µM (inactive) | > 100 µM (inactive) | > 100 µM (inactive) | > 100 µM (inactive) | 97.3 µM (inactive) | 
COc1cc(Nc2nc3cc(C(F)(F)F)ccc3nc2C)cc(OC)c1OC | 3.81 µM (inactive) | 5.74 µM (inactive) | 16.6 µM (inactive) | 3.32 | 16.7 µM (inactive) | 0.246 µM (active) | 3 µM (inactive) | 13.6 µM (inactive) | 3.13 µM (inactive) |  | 5.14 µM (inactive) | 4.11 µM (inactive) | 16.1 µM (inactive) | 11 µM (inactive) | 5.46 µM (inactive) | 16 µM (inactive) | 1.97 µM (inactive) | 15.5 µM (inactive) | 10.7 µM (inactive) | 
CCCCCNC(=O)CCCCCCCCCCCNC(=O)CCCCCCCCCCN1C=CC(=CC=C2C=CC(=O)C=C2)C=C1 | > 100 µM (inactive) | 15.1 µM (inactive) | > 100 µM (inactive) | > 100 | 64.6 µM (inactive) | 14.7 µM (inactive) | 54.6 µM (inactive) | 28.4 µM (inactive) | 34.8 µM (inactive) |  | 63.8 µM (inactive) | > 100 µM (inactive) | 41.3 µM (inactive) | 55.7 µM (inactive) | > 100 µM (inactive) | > 100 µM (inactive) | 71.4 µM (inactive) | 19.4 µM (inactive) | > 10 µM (inactive) | 
CC1(C)CC2C(C1=O)C1(C)CCCC2(C)C1=O (centres undefined) |  | > 100 µM (inactive) | > 100 µM (inactive) | > 100 | > 100 µM (inactive) | > 100 µM (inactive) | > 100 µM (inactive) | > 100 µM (inactive) | > 100 µM (inactive) | > 100 µM (inactive) | > 100 µM (inactive) | > 100 µM (inactive) | > 100 µM (inactive) | > 100 µM (inactive) |  | > 100 µM (inactive) | > 100 µM (inactive) | > 100 µM (inactive) | > 100 µM (inactive) | > 100 µM (inactive)
Cc1ccc(S(=O)(=O)N2CC2CCCCC=O)cc1 (centres undefined) | > 100 µM (inactive) | 21.6 µM (inactive) | > 100 µM (inactive) | > 100 | > 100 µM (inactive) | > 100 µM (inactive) | 26.8 µM (inactive) | 80.9 µM (inactive) | 20.1 µM (inactive) |  | > 100 µM (inactive) |  | > 100 µM (inactive) | > 100 µM (inactive) | > 100 µM (inactive) | > 100 µM (inactive) | > 100 µM (inactive) | > 100 µM (inactive) | > 100 µM (inactive) | > 100 µM (inactive)
O=C(NC1C(=O)NNC1c1ccccc1Cl)c1ccccc1 (centres undefined) | > 100 µM (inactive) | > 100 µM (inactive) | > 100 µM (inactive) | > 100 | > 100 µM (inactive) | > 100 µM (inactive) | > 100 µM (inactive) | > 100 µM (inactive) | > 100 µM (inactive) |  | 83 µM (inactive) | > 100 µM (inactive) | > 100 µM (inactive) | > 100 µM (inactive) | > 100 µM (inactive) | > 100 µM (inactive) | > 100 µM (inactive) | > 100 µM (inactive) | > 100 µM (inactive) | 
O=c1c2ccccc2c(=O)c2c1c1[nH]c3ccccc3c1c1c(=O)c3ccccc3c(=O)c21 | > 100 µM (inactive) | 94 µM (inactive) | > 100 µM (inactive) | > 100 | > 100 µM (inactive) | > 100 µM (inactive) | > 100 µM (inactive) | > 100 µM (inactive) | > 100 µM (inactive) |  | > 100 µM (inactive) | > 100 µM (inactive) | > 100 µM (inactive) | > 100 µM (inactive) | > 100 µM (inactive) | > 100 µM (inactive) | > 100 µM (inactive) | > 100 µM (inactive) | > 100 µM (inactive) | 
COC(=O)C1=C(O)C(C(=O)OC)[C@]2(O)[C@H](C(=O)OC)[C@H]1C[C@@H](c1cccc(OC)c1)[C@H]2C(=O)OC (some centres undefined) | 21.4 µM (inactive) |  | 29.5 µM (inactive) | 26.3 | 31 µM (inactive) | 47 µM (inactive) | 34.9 µM (inactive) | 39 µM (inactive) | 36.5 µM (inactive) | 23.4 µM (inactive) | 28.8 µM (inactive) | 22.2 µM (inactive) |  | 31.6 µM (inactive) | 18.8 µM (inactive) | 26.1 µM (inactive) | 35.8 µM (inactive) | 27.5 µM (inactive) | 34 µM (inactive) | 
O/N=C1/CCCC/C1=C/C=C/c1ccccc1 | 20.9 µM (inactive) | 20.6 µM (inactive) |  | 14.9 |  | 15.5 µM (inactive) | 18.3 µM (inactive) | 16.5 µM (inactive) | 17.2 µM (inactive) |  | 23.6 µM (inactive) | 22.7 µM (inactive) | 17.9 µM (inactive) | 41.9 µM (inactive) | 19.4 µM (inactive) | 19.1 µM (inactive) | 21.8 µM (inactive) | 20.4 µM (inactive) | 29 µM (inactive) | 22.1 µM (inactive)
Cc1nc(C(N)=S)sc1C(=O)CC(=O)C(=O)Nc1nc2ccccc2[nH]1 | > 100 µM (inactive) |  | > 100 µM (inactive) | > 100 | > 100 µM (inactive) | 69.5 µM (inactive) | > 100 µM (inactive) | > 100 µM (inactive) | > 100 µM (inactive) | > 100 µM (inactive) | 11.5 µM (inactive) | > 100 µM (inactive) | > 100 µM (inactive) | > 100 µM (inactive) | > 100 µM (inactive) | > 100 µM (inactive) | > 100 µM (inactive) | > 100 µM (inactive) | > 100 µM (inactive) | 
COc1cc([N+](=O)[O-])c(S(=O)(=O)O)cc1-n1nc(C(=O)Nc2ccccc2)n[n+]1-c1cc(S(=O)(=O)[O-])c([N+](=O)[O-])cc1OC |  | > 100 µM (inactive) | > 100 µM (inactive) | 45.4 | > 100 µM (inactive) | > 100 µM (inactive) | 56 µM (inactive) | > 100 µM (inactive) | 9.84 µM (inactive) | > 100 µM (inactive) | > 100 µM (inactive) | > 100 µM (inactive) | > 100 µM (inactive) | > 100 µM (inactive) |  | > 100 µM (inactive) | > 100 µM (inactive) | > 100 µM (inactive) | > 100 µM (inactive) | > 100 µM (inactive)
O=S(=O)(O)c1cc(S(=O)(=O)O)c2c(/N=N/c3ccc(S(=O)(=O)O)c4ccccc34)c(O)ccc2c1 |  | > 100 µM (inactive) | > 100 µM (inactive) | > 100 | > 100 µM (inactive) | > 100 µM (inactive) | > 100 µM (inactive) | > 100 µM (inactive) | > 100 µM (inactive) |  | > 100 µM (inactive) |  | > 100 µM (inactive) | > 100 µM (inactive) | > 100 µM (inactive) | > 100 µM (inactive) | > 100 µM (inactive) | > 100 µM (inactive) | > 100 µM (inactive) | > 100 µM (inactive)
